# Data reported in patent US12628822B2, “Plant pathogen defence elicitors” (UNIVERSITÉ LIBRE DE BRUXELLES, priority 2020, dated 2026).
# Test system: Arabidopsis transcriptome
# Assay: cDNA microarray analysis of early transcriptomic changes in Arabidopsis seedlings
# Assay type: in vivo, Arabidopsis thaliana
# Procedure: Arabidopsis thaliana Columbia (Col-0) was the accession used for all the experiments. Seeds were surface sterilised by subsequent treatment with 50% v/v Et-OH and 3% bleach solution in agitation for 5 and 10 min, respectively. Seeds were then washed three times with distilled water and stratified for 3 days at 4° C. in the dark. For qPCR analysis and microarray experiments, seeds were sown on square petri dishes ([…]) containing half strength Murashige and Skoog (MS) salt, 2.5 mM MES, 1% w/v sucrose and 0.8% w/v plant agar. The experiments were performed using 14-day old seedlings grown vertically in a controlled growth cabinet with short day conditions ( 8/16 h light/dark; 100 μmol photons m^−2 s^−1) at 22±0.5° C. Treatments were performed by applying 40-50 μl of fresh-prepared and filtered solution per seedling.
# For RNA extraction, 14-day old leaves from ten independent plants were collected at the indicated time point after treatments, pooled and frozen in liquid nitrogen. Total RNA was extracted from 100 mg of ground-frozen samples using the Maxwell® LEV Plant RNA Kit (Promega, Madison, WI, USA) and the RNA integrity was determined through NanoDrop 2000 UV-Vis Spectrophotometer (Thermo Scientific, Loughborough, UK). First-strand cDNA was synthesized by using SOLIScript® RT cDNA synthesis MIX (Solis Biodyne, Tartu, Estonia) and qPCRs were performed using SYBR® Selected MasterMix 2× (Applied Biosystems, Thermo Fisher Scientific, Waltham, USA), following the manufacturers' protocols. The cycling conditions consisted of an initial 7 min at 95° C., followed by 40 two-step cycles at 95° C. for 5 s and at 60° C. for 30 s. Melting curve analysis was performed after cycle completion to validate amplicon identity. Relative expression levels were calculated following the standard curve-based method (Larionov et al. A standard curve based method for relative real time PCR data processing, BMC Bioinformatics. 2005, vol. 6, 1) by using ACTIN as reference. Gene-specific primers used in this work are indicated below.
# RNA sample preparation for microarray hybridization was carried out as described in the Applied Biosystems™ GeneChip™ Whole Transcript (WT) PLUS Reagent Kit User Guide (Thermo Fisher Scientific, Waltham, MA, USA). Briefly, 200 ng of total RNA was used to generate double-stranded cDNA. Twelve μg of subsequently synthesized cRNA were purified and reverse transcribed into single-stranded (ss)cDNA, where unnatural dUTP residues were incorporated. Purified and labelled sscDNAs were hybridised to Arabidopsis Gene 1.0 ST arrays (Affymetrix, Santa Clara, CA, USA) and the fluorescent signals were measured with an Applied Biosystems™ GeneChip Scanner 3000 7 G System. Sample processing was performed at a Genomics Core Facility, “KFB—Center of Excellence for Fluorescent Bioanalytics” (Regensburg, Germany).
# Normalised probe set signals in log2 scale were calculated by using the RMA algorithm. Average linkage hierarchical clusters of differentially expressed genes were generated by using Cluster 3.0 and visualized by java TreeView.
# In Arabidopsis, the DAMPs-dependent elicitation of PTI is known to be accompanied by a deep immune gene transcriptional reprogramming. […] The transcriptomic analysis was carried out by using Arabidopsis 1.0 ST microarray chip (Affymetrix, Santa Clara, CA, USA) and Differentially Expressed Genes (DEGs) were selected using two criteria: log2 expression ratios ≥1.5-fold or […] and Student's t-test p-value≤0.05.
# [1] = 100 μM, 1 h, Col-0 plants, vs control
structure (smiles),measurement,setting,value
"OC[C@H]1O[C@@H](O[C@H]2[C@H](O)[C@@H](O)[C@H](O)O[C@@H]2CO)[C@H](O)[C@@H](O)[C@@H]1O [Cellobiose, β-D-glucopyranosyl(1→4)D-glucopyranose]",AT3G46280 protein kinase-like protein gene expression,[1],4.51 fold change
same,AT3G51910 heat stress transcription factor A-7a gene expression,[1],1.35 fold change
same,AT3G54420 chitinase class IV gene expression,[1],1.74 fold change
same,AT4G01750 rhamnogalacturonan xylosyltransferase 2 gene expression,[1],2.59 fold change
same,AT4G11890 receptor-like cytosolic kinase ARCK1 gene expression,[1],1.75 fold change
same,AT4G12400 carboxylate clamp-tetratricopeptide repeat protein gene expression,[1],3.23 fold change
same,AT4G15233 ABC transporter G family member 42 gene expression,[1],1.66 fold change
same,AT4G21120 amino acid transporter 1 gene expression,[1],1.07 fold change
same,AT4G22470 protease inhibitor/seed storage/lipid transfer protein (LTP) family protein gene expression,[1],1.77 fold change
same,"AT4G22710 cytochrome P450, family 706, subfamily A, polypeptide 2 gene expression",[1],1.15 fold change
same,AT4G23220 cysteine-rich receptor-like protein kinase 14 gene expression,[1],1.69 fold change
same,AT4G23280 putative cysteine-rich receptor-like protein kinase 20 gene expression,[1],1.14 fold change
same,AT4G23570 phosphatase SGT1a gene expression,[1],2.22 fold change
same,AT4G25110 metacaspase 2 gene expression,[1],1.74 fold change
same,AT4G26200 1-aminocyclopropane-1-carboxylate synthase 7 gene expression,[1],2.14 fold change
same,"AT4G27280 EF-hand, calcium binding motif-containing protein gene expression",[1],1.33 fold change
same,AT4G38550 phospholipase like protein (PEARLI 4) family gene expression,[1],1.60 fold change
same,AT5G05300 hypothetical protein gene expression,[1],1.78 fold change
same,AT5G10695 hypothetical protein gene expression,[1],2.27 fold change
same,AT5G14470 GHMP kinase family protein gene expression,[1],1.21 fold change
same,AT5G15870 glycosyl hydrolase family 81 protein gene expression,[1],1.14 fold change
same,AT5G19230 GPI-anchored glycoprotein membrane precursor gene expression,[1],1.24 fold change
same,AT5G35320 hypothetical protein gene expression,[1],1.02 fold change
same,AT5G37600 glutamine synthetase 1; 1 gene expression,[1],1.56 fold change
same,AT5G37670 heat shock protein 15.7 gene expression,[1],1.04 fold change
same,AT5G39020 putative receptor-like protein kinase gene expression,[1],1.02 fold change
same,AT5G39580 peroxidase 62 gene expression,[1],3.82 fold change
same,AT5G44070 glutathione gamma-glutamylcysteinyltransferase 1 gene expression,[1],1.44 fold change
same,AT5G44585 hypothetical protein gene expression,[1],2.20 fold change
same,AT5G44910 Toll-Interleukin-Resistance domain-containing protein gene expression,[1],1.10 fold change
same,AT5G46050 peptide transporter 3 gene expression,[1],1.74 fold change
same,AT5G48530 hypothetical protein gene expression,[1],2.07 fold change
same,AT5G48540 receptor-like protein kinase-related family protein gene expression,[1],1.85 fold change
same,AT5G48570 peptidyl-prolyl cis-trans isomerase FKBP65 gene expression,[1],3.39 fold change
same,AT5G51440 heat shock protein 23.5 gene expression,[1],1.36 fold change
same,AT5G52640 heat shock protein 90.1 gene expression,[1],3.70 fold change
same,"AT5G57220 cytochrome P450, family 81, subfamily F, polypeptide 2 gene expression",[1],1.07 fold change
same,AT5G62020 heat stress transcription factor B-2a gene expression,[1],1.00 fold change
same,AT5G64120 peroxidase 71 gene expression,[1],1.42 fold change
same,AT5G67450 zinc-finger protein 1 gene expression,[1],1.44 fold change
same,MYB51 (AT1G18570) Expression,"100 μM, 1 h, microarray",1.46 Fold change (treatment/CTR)
same,MYB73 (AT4G37260) Expression,"100 μM, 1 h, microarray",1.06 Fold change (treatment/CTR)
same,NAC047 (AT3G04070) Expression,"100 μM, 1 h, microarray",1.81 Fold change (treatment/CTR)
same,NAC055 (AT3G15500) Expression,"100 μM, 1 h, microarray",1.20 Fold change (treatment/CTR)
same,NAC057 (AT3G17730) Expression,"100 μM, 1 h, microarray",1.40 Fold change (treatment/CTR)
same,NAC058 (AT3G18400) Expression,"100 μM, 1 h, microarray",1.41 Fold change (treatment/CTR)
same,NAC078 (AT5G04410) Expression,"100 μM, 1 h, microarray",1.31 Fold change (treatment/CTR)
same,Target of MYB protein 1 (AT1G76970) Expression,"100 μM, 1 h, microarray",1.64 Fold change (treatment/CTR)
same,WRKY11 (AT4G31550) Expression,"100 μM, 1 h, microarray",1.95 Fold change (treatment/CTR)
same,WRKY15 (AT2G23320) Expression,"100 μM, 1 h, microarray",−1.06 Fold change (treatment/CTR)
same,WRKY18 (AT4G31800) Expression,"100 μM, 1 h, microarray",4.02 Fold change (treatment/CTR)
same,WRKY22 (AT4G01250) Expression,"100 μM, 1 h, microarray",2.34 Fold change (treatment/CTR)
same,WRKY30 (AT5G24110) Expression,"100 μM, 1 h, microarray",1.30 Fold change (treatment/CTR)
same,WRKY33 (AT2G38470) Expression,"100 μM, 1 h, microarray",1.33 Fold change (treatment/CTR)
same,WRKY40 (AT1G80840) Expression,"100 μM, 1 h, microarray",−1.05 Fold change (treatment/CTR)
same,WRKY61 (AT1G18860) Expression,"100 μM, 1 h, microarray",−1.05 Fold change (treatment/CTR)
same,WRKY72 (AT5G15130) Expression,"100 μM, 1 h, microarray",1.41 Fold change (treatment/CTR)
same,"LOX4 (AT1G72520) gene expression, Microarray",vs CTR,1.68 fold change
same,"MPK3 (AT3G45640) gene expression, Microarray",vs CTR,1.22 fold change
same,"MPK6 (AT2G43790) gene expression, Microarray",vs CTR,−1.06 fold change
same,"PAD3 (AT3G26830) gene expression, Microarray",vs CTR,−1.04 fold change
same,"PEN3 (AT1G59870) gene expression, Microarray",vs CTR,1.55 fold change
same,"PR1 (AT2G14610) gene expression, Microarray",vs CTR,1.91 fold change
same,"WRKY18 (AT4G31800) gene expression, Microarray",vs CTR,4.02 fold change
same,"WRKY22 (AT4G01250) gene expression, Microarray",vs CTR,2.34 fold change
same,"WRKY33 (AT2G38470) gene expression, Microarray",vs CTR,1.33 fold change
same,"IGMT2 (At1G21120) gene expression, Microarray",vs mock,−1.14 fold change
